{"source": "patent US20030032809A1", "about": "“Optimized procedures for the manufacture of paroxetine salts” (priority 2001, published 2003)", "key": {"[1]": {"conditions": "prior-art statement; cited from earlier work"}, "[2]": {"assay": "Solubility of paroxetine salts in water", "assay_type": "physicochemical"}}}
{"substance": "(−)-trans-4R-(4′-fluorophenyl)-3S-[(3′,4′-methylenedioxyphenyl)oxymethyl]piperidine acetate [paroxetine acetate]", "values": [{"measurement": "water solubility (in words, background)", "setting": "[1]", "value": "excellent water solubility profile"}, {"measurement": "solubility", "setting": "[2]; purified water, room temperature, purified paroxetine acetate", "value": "at least 1000 mg per one ml"}, {"measurement": "solubility in water (in words)", "setting": "[2]; water", "value": "highly soluble in water"}]}
